Laboratory results from the NIST ThermoML archive (doi:10.1021/je200309v).

Assay: mn = molality of the nth substance listed, in mol/kg
Conditions: 101 kPa, Liquid, Alternating current cell with electrodes

CC[N+](CC)(CC)CC.F[B-](F)(F)F [tetraethylammonium tetrafluoroborate] + CC1COC(=O)O1
electrical conductivity [S/m]
Conditions | m1 = 0.1593 | m1 = 0.461 | m1 = 0.5658 | m1 = 0.7282 | m1 = 0.8234 | m1 = 0.9666 | m1 = 1.186 | m1 = 1.425
253.15 K | 0.1317 | 0.278 | 0.3133 | 0.3523 | 0.366 | 0.3749 | 0.359 | –
273.15 K | 0.239 | 0.519 | 0.591 | 0.676 | 0.712 | 0.745 | 0.75 | 0.689
293.15 K | 0.364 | 0.812 | 0.929 | 1.07 | 1.128 | 1.19 | 1.201 | 1.116
313.15 K | 0.516 | 1.16 | 1.333 | 1.543 | 1.635 | 1.73 | 1.77 | 1.69
333.15 K | 0.678 | 1.535 | 1.76 | 2.049 | 2.18 | 2.314 | 2.4 | 2.307
